Assay: Chelation test with La^3+ (HPLC chromatograms prior and subsequent to mixing)
Assay type: physicochemical
Details: prior vs subsequent to mixing with La^3+

## CC(C)CCC(c1cccc(C(=O)O)n1)N1CCOCCOCCN(Cc2cccc(C(=O)O)n2)CCOCCOCC1 (centres unmarked) [TOPA-[C7]-isopentyl, 6-((16-(1-(6-carboxypyridin-2-yl)-4-methylpentyl)-1,4,10,13-tetraoxa-7,16-diazacyclooctadecan-7-yl)methyl)picolinic acid]
  chelation of La^3+ indicated by shift in HPLC retention time: rapid chelation of La^3+ and Ac-225

## O=C(O)c1cccc(CN2CCOCCOCCN(C(c3ccccc3)c3cccc(C(=O)O)n3)CCOCCOCC2)n1 (centres unmarked) [TOPA-[C7]-phenyl, 6-((16-((6-carboxypyridin-2-yl)(phenyl)methyl)-1,4,10,13-tetraoxa-7,16-diazacyclooctadecan-7-yl)methyl)picolinic acid]
  chelation of La^3+ indicated by shift in HPLC retention time: rapid chelation of La^3+

Reference: patent publication US20250082793A1, “MACROCYCLIC COMPOUNDS AND METHODS OF MAKING THE SAME” (JANSSEN BIOTECH, INC., priority 2021, published 2025)
